Common to all, as to type: cell-based, HIV-1
The subject of experiment [1] is Recombinant wild type HIV strain recIIIB. In words: Antiviral MT4/MTT assay with reference virus recIIIB. The settings on record: read-out: Anti-HIV-1 activity IC50 (μM) recIIIB ref (2). On the procedure: (§1) After titration of the new viruses, the stocks were used for antiviral experiments in the presence of serial dilutions of different HIV inhibitors. Titres of the harvested supematants were determined by limited serial dilution titration of virus in MT4 cells.
(§2) Viruses with a useful titre were used in antiviral experiments. For this purpose, 96-well microtitre plates were filled with 100μl of complete culture medium. Subsequently, stock solutions of compounds were added in 25 μl volumes to series of duplicate wells. HIV- and mock-infected cell samples were included for each drug (or drug combination). Exponentially growing MT4 cells were then transferred to the microtitre plates at a density of 150,000 cells/ml. The cell cultures were then incubated at 37° C. in a humidified atmosphere of 5% CO2. Five days after infection, the viability of the mock- and HIV-infected cells was examined spectrophotometrically by the M1T method (Pauwels, R. et al. J. Virol. Meth. (1988), 20: 309-321) as described in Section 6 below.
(§3) To each well of the microtiter plates, 20 μl of a solution of MTT (7.5 mg/ml in PBS) was added. The plates were further incubated at 37° C. for 1 h. Then, 150 μl of medium was removed without disturbing the MT4 cell clusters containing the formazan crystals. Solubilization of the formazan crystals was achieved by adding 100 μl 5% Triton X-100 in acidified isopropanol (5 ml concentrated HCl per liter solvent). Complete dissolution of the formazan crystals was obtained after the plates had been placed on a plate shaker for 10 min. Finally the absorbances were read at two wavelengths (540 and 690 nm). From these optical density (OD) data, 50% inhibitory (IC50) and 50% cytotoxic (CC50) concentrations were derived.

The test system of experiment [2] is recombinant virus from patient viral RNA (Example 8). In words: Recombinant virus assay (MT4/MTT), patient of Example 8 (therapy history AZT, 3TC and loviride). The settings on record: for IC50: Human immunodeficiency virus 1, Table 4, Example 8 patient virus; for ratio (1)/(2): Table 4, patient mean IC50 / recIIIB IC50, Example 8. On the procedure:
(§4) RNA was isolated from 100 μl of plasma according to the method described by Boom, R. et al. (1990, supra), and was reverse transcribed with the GeneAmp reverse transcriptase kit (Perkin Elmer) as described by the manufacturer and using an HIV-1 specific downstream primer (OUT3: 5′-CATTGCTCTCCAATTACTGTGATATTTCTCATC-3′; SEQ ID NO: 1). PCR on reverse transcribed RNA was performed with inner and outer primers as described by Kellam, P. and Larder, B. A. (1994, supra). After chloroform extraction and centrifugation on Centricon 100 columns or centrifugation on anion-exchange spin columns (Quiagen), the isolated PCR product was ready for use in the transfection reactions.
(§5) MT4 cells were subcultured at a density of 250,000 cells/ml before transfection (exponential growth phase). Cells were pelleted and resuspended in phosphate buffered saline (PBS) at a concentration of […]. A 0.8 ml portion (2.5 10E6 cells/ml) was used for each transfection. Transfection was performed with the Bio-Rad Gene pulser making use of 0.4 cm electrode cuvettes. Cells were electroporated in the presence of […] of linearised pHIVΔRT plasmid and approximately 5 μg of RT PCR product at 250SF and 300 V, followed by a 30-min incubation at room temperature. Subsequently, 10 ml of fresh culture medium was added to the cell suspension and incubation was performed at 37° C. in a humidified atmosphere of 5% CO2.
(§6) During 7 to 10 days following the transfection, cells were monitored for the appearance of cytopathogenic effect (CPE). In the absence thereof, cells were subcultured in different flasks. Subsequently, culture supernatants of transfected cells were used to create a stock of recombinant virus and stored in 1.5 ml aliquots at −70° C.
as §1, §2, §3
An HIV-infected patient with a therapy history including AZT, 3TC and loviride donated plasma whose susceptibility to a number of RT inhibitors was determined according to the protocol set out in Example 1. Recombinant wild type HIV strain recIIIB was used as a reference HIV virus.

The subject of experiment [3] is recombinant virus from patient viral RNA (Example 5, 3TC resistant HIV strains). In words: Recombinant virus assay (MT4/MTT), patient of Example 5 (AZT, then AZT+3TC therapy). As to conditions: for IC50: Human immunodeficiency virus 1, Table 1, Example 5 patient virus; for ratio (1)/(2): Table 1, patient mean IC50 / recIIIB IC50, Example 5. On the procedure: as §4, §5, §6, §1, §2, §3
An HIV infected patient who received AZT from December 1989 until an undocumented later date, and switched to a combined chemotherapy of AZT+3TC (1:1) from February 1994 until October 1995 donated plasma whose susceptibility to a number of RT inhibitors was determined according to the above described protocol of Example 1. Recombinant wild type HIV strain recIIIB was used in said protocol as a reference HIV virus.

Experiment [4] has as its system recombinant virus from patient viral RNA (Example 7, drug-naive patient). In words: Recombinant virus assay (MT4/MTT), drug-naive patient of Example 7. The settings on record: for IC50: Human immunodeficiency virus 1, Table 3, Example 7 patient virus; for ratio (1)/(2): Table 3, patient mean IC50 / recIIIB IC50, Example 7. On the procedure:
as §4, §5, §6, §1, §2, §3
A drug-naive HIV-infected patient donated plasma whose susceptibility to a number of RT inhibitors was determined according to the protocol set out in Example 1. Recombinant wild type HIV strain recIIIB was used as a reference HIV virus.

Experiment [5] relates to recombinant virus from patient viral RNA (Example 9). In words: Recombinant virus assay (MT4/MTT), patient of Example 9 (multiple nucleoside analogue RT-inhibitors). As to conditions: for IC50: Human immunodeficiency virus 1, Table 5, Example 9 patient virus; for ratio (1)/(2): Table 5, patient mean IC50 / recIIIB IC50, Example 9. On the procedure: as §4, §5, §6, §1, §2, §3
An HIV-infected patient with a therapy history including multiple nucleoside analogue RT-inhibitors donated plasma whose susceptibility to a number of RT inhibitors was determined according to the protocol set out in Example 1. Recombinant wild type HIV strain recIIIB was used as a reference HIV virus.

Experiment [6] deals with recombinant virus from patient viral RNA (Example 12). As to the kind of experiment: Recombinant virus assay (MT4/MTT), patient of Example 12 (therapy history RT and protease inhibitors). As to conditions: for IC50: Human immunodeficiency virus 1, Table 8, Example 12 patient virus. On the procedure:
as §4, §5, §6, §1, §2, §3
An HIV infected patient with a therapy history including RT and protease inhibitors donated plasma whose susceptibility to a number of RT inhibitors and protease inhibitors was determined according to the protocol set out in Example 1.

Experiment [7] relates to recombinant virus from patient viral RNA (Example 11). In words: Recombinant virus assay (MT4/MTT), patient of Example 11 (therapy history RT and protease inhibitors). The settings on record: for IC50: Human immunodeficiency virus 1, Table 7, Example 11 patient virus. On the procedure:
as §4, §5, §6, §1, §2, §3
An HIV infected patient with a therapy history including RT and protease inhibitors donated plasma whose susceptibility to a number of RT inhibitors and protease inhibitors was determined according to the protocol set out in Example 1. Recombinant wild type HIV strain recIIIb was used as a reference HIV virus.

Experiment [8] concerns recombinant virus from patient viral RNA (Example 10, drug-naive patient). As to the kind of experiment: Recombinant virus assay (MT4/MTT), drug-naive patient of Example 10. As to conditions: for IC50: Human immunodeficiency virus 1, Table 6, Example 10 patient virus. On the procedure:
as §4, §5, §6, §1, §2, §3
A drug-naive HIV-infected patient donated plasma whose susceptibility to a number of RT inhibitors and protease inhibitors was determined according to the protocol set out in Example 1. Recombinant wild type HIV strain recIIIB was used as a reference HIV virus.

The mark [9] stands for this setting: Human immunodeficiency virus 1, Table 1, reference run of Example 5.
[10] abbreviates: Human immunodeficiency virus 1, Table 3, reference run of Example 7.
Setting [11] is: Human immunodeficiency virus 1, Table 4, reference run of Example 8.
Where [12] appears, read: Human immunodeficiency virus 1, Table 5, reference run of Example 9.
Setting [13] is: MT4 cells, read-out: Anti-HIV-1 activity IC50 (μM) Exp. 1.
Where [14] appears, read: MT4 cells, read-out: Anti-HIV-1 activity IC50 (μM) Exp. 2.
The mark [15] stands for this setting: mean, read-out: Anti-HIV-1 activity IC50 (μM) Mean (1).
[16] abbreviates: mean of Exp. 1 and 2, read-out: Anti-HIV-1 activity IC50 (μM) Mean (1).

Where two headings read alike, the source gives them in different places.

On to `CC(C)=CCN1Cc2c(Cl)ccc3[nH]c(=S)n(c23)C[C@@H]1C` [tivirapine], for which the IC50 was determined as 0.01 µM in experiment [1] (setting [9]); 0.021 µM in experiment [1] (setting [10]); 0.021 µM in experiment [1] (setting [11]); 0.042 µM in experiment [1] (setting [12]); 1.63 µM in experiment [2] (setting [13]); 1.6 µM in experiment [2] (setting [14]). Besides, the IC50 in experiment [2] (setting [15]) is 1.61 µM; in experiment [3] (setting [13]) it was 0.019 µM; in experiment [3] (setting [14]) it was 0.018 µM; in experiment [3] (setting [16]) it was 0.019 µM; in experiment [4] (setting [13]) it was 0.042 µM; in experiment [4] (setting [14]), 0.049 µM. Moreover, the IC50 in experiment [4] (setting [15]) was determined as 0.046 µM; in experiment [5] (setting [13]), 0.052 µM; in experiment [5] (setting [14]), 0.043 µM; in experiment [5] (setting [15]) it was 0.048 µM. Also, the “ratio (1)/(2)” value in experiment [2] was determined as 78; in experiment [3], 1.5; in experiment [4], 2; in experiment [5], 1.
Regarding `CC(C)(C)NC(=O)[C@@H]1CN(Cc2cccnc2)CCN1C[C@@H](O)C[C@@H](Cc1ccccc1)C(=O)N[C@H]1c2ccccc2C[C@H]1O` [indinavir], the “susceptibility of the patient's HIV strain (in words)” value is recorded as “decreased susceptibility” in experiment [6] (Example 12 patient, conclusion from Table 8) and “decreased susceptibilty” in experiment [7] (Example 11 patient, conclusion from Table 7). The IC50 was determined as 0.124 µM in experiment [6] (setting [13]); 0.124 µM in experiment [6] (setting [15]); 0.229 µM in experiment [7] (setting [13]); 0.416 µM in experiment [7] (setting [14]); 0.323 µM in experiment [7] (setting [15]); 0.016 µM in experiment [1] (Human immunodeficiency virus 1, Table 6, reference run of Example 10). For the same compound, the IC50 in experiment [1] (Human immunodeficiency virus 1, Table 7, reference run of Example 11) amounted to 0.027 µM; in experiment [1] (Human immunodeficiency virus 1, Table 8, reference run of Example 12), 0.016 µM; in experiment [8] (setting [13]), 0.013 µM; in experiment [8] (setting [14]) it was 0.013 µM; in experiment [8] (setting [15]), 0.013 µM. Moreover, the “ratio (1)/(2)” value is given as 8 in experiment [6] (Table 8, patient mean IC50 / recIIIB IC50, Example 12); 12 in experiment [7] (Table 7, patient mean IC50 / recIIIB IC50, Example 11); 0.8 in experiment [8] (Table 6, patient mean IC50 / recIIIB IC50, Example 10).
Consider `CC(=O)c1ccc(C)cc1NC(C(N)=O)c1c(Cl)cccc1Cl` (centres unmarked) [loviride], for which the IC50 in experiment [1] (setting [9]) was 0.05 µM; in experiment [1] (setting [10]), 0.024 µM; in experiment [1] (setting [11]) it was 0.037 µM; in experiment [1] (setting [12]), 0.065 µM; in experiment [2] (setting [13]), over 100 µM; in experiment [2] (setting [14]), over 100 µM. In addition, the half-inhibitory concentration (IC50) in experiment [2] (setting [15]) was over 100 µM; in experiment [3] (setting [13]) it was 0.1 µM; in experiment [3] (setting [14]), 0.12 µM; in experiment [3] (setting [16]), 0.11 µM; in experiment [4] (setting [13]), 0.035 µM; in experiment [4] (setting [14]), 0.025 µM. Further, the IC50 turned out to be 0.03 µM in experiment [4] (setting [15]), 0.064 µM in experiment [5] (setting [13]), 0.058 µM in experiment [5] (setting [14]) and 0.061 µM in experiment [5] (setting [15]). Moreover, the “ratio (1)/(2)” value is over 2717 in experiment [2], 2 in experiment [3], 1 in experiment [4] and 0.9 in experiment [5].

For orientation: IC50 means the concentration needed to halve the response being measured.

Source of the values: US6528251B2, “Method of managing the chemotherapy of patients who are HIV positive based on the phenotypic drug sensitivity of human HIV strains” (Virco N.V., priority 1996, dated 2003).
